# Molecular target: human TPH1 (Homo sapiens (Human), UniProt P17752)
# Assay: Biochemical in vitro assay using fluorescence readout (TPH1 inhibition)
# Details: full length human TPH1, 40 μM L-tryptophan, 15° C., 60 minutes, fluorescence at 540 nm; mean if determined several times
# Chain of human TPH1 (P17752 whole entry): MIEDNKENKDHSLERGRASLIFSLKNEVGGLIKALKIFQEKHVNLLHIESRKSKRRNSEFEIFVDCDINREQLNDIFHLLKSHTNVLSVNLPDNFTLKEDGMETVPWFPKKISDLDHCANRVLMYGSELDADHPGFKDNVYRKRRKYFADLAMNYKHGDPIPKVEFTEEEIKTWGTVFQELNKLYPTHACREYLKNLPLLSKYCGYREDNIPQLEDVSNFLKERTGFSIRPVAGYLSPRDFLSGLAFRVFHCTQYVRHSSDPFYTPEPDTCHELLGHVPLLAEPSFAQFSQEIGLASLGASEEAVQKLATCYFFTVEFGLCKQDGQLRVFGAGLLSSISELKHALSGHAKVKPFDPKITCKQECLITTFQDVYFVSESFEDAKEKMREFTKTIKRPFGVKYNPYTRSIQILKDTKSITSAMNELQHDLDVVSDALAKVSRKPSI
row,Compound,IC50 [µM]
1,"Cc1nn2c3c(nc2s1)CCN(C(=O)COc1ccc(NS(C)(=O)=O)nc1Cl)C3c1cc(C(=O)N(C)C)cs1 (stereo not drawn) [Example 1.9.4, 5-(6-(2-((2-Chloro-6-(methylsulfonamido)pyridin-3-yl)oxy)acetyl)-2-methyl-5,6,7,8-tetra-hydro-[1,3,4]thiadiazolo[2′,3′:2,3]imidazo[4,5-c]pyridin-5-yl)-N,N-dimethylthiophene-3-carboxamide]",0.032
2,"Cc1nn2c3c(nc2s1)CCN(C(=O)COc1ccc(C2CC2)cc1Cl)C3c1ccc(Cl)cc1F (stereo not drawn) [Example 1.4.34, 1-(5-(4-Chloro-2-fluorophenyl)-2-methyl-7,8-dihydro-[1,3,4]thiadiazolo[2′,3′:2,3]imidazo[4,5-c]pyridin-6(5H)-yl)-2-(2-chloro-4-cyclopropylphenoxy)-ethanone]",0.004
3,"CNC(=O)c1csc(C2c3c(nc4sc(C)nn34)CCN2C(=O)COc2ccc(N3CCOCC3)nc2Cl)n1 (stereo not drawn) [Example 1.44.2, 2-(6-(2-((2-Chloro-6-morpholinopyridin-3-yl)oxy)acetyl)-2-methyl-5,6,7,8-tetrahydro-[1,3,4]thiadiazolo[2′,3′:2,3]imidazo[4,5-c]pyridin-5-yl)-N-methylthiazole-4-carboxamide]",0.005
4,"Cc1nn2c3c(nc2s1)CCN(C(=O)COc1ccc(N(C)C)nc1Cl)C3c1cnc(N(C)C)s1 (stereo not drawn) [Example 1.22.2, 2-((2-Chloro-6-(dimethylamino)pyridin-3-yl)oxy)-1-(5-(2-(dimethylamino)thiazol-5-yl)-2-methyl-7,8-dihydro[1,3,4]thiadiazolo[2′,3′:2,3]imidazo[4,5-c]pyridin-6(5H)-yl)ethanone]",0.025
5,"Cc1nn2c3c(nc2s1)CCN(C(=O)COc1ccc(C2CC2)nc1Cl)C3c1ccc(Cl)cc1F (stereo not drawn) [Example 1.4.28, 1-(5-(4-Chloro-2-fluorophenyl)-2-methyl-7,8-dihydro-[1,3,4]thiadiazolo[2′,3′:2,3]imidazo[4,5-c]pyridin-6(5H)-yl)-2-((2-chloro-6-cyclopropylpyridin-3-yl)oxy)-ethanone]",0.006

# Same assay, conditions: human TPH1, fluorescence readout
row,Compound,IC50 [µM]
1,"Cc1nn2c3c(nc2s1)CCN(C(=O)COc1ccc(N2CCOCC2)nc1Cl)C3c1nc(C(=O)N(C)C)cs1 (stereo not drawn) [Example 1.18.1, 2-(6-(2-((2-chloro-6-morpholinopyridin-3-yl)oxy)acetyl)-2-methyl-5,6,7,8-tetrahydro-[1,3,4]thiadiazolo[2′,3′:2,3]imidazo[4,5-c]pyridin-5-yl)-N,N-dimethylthiazole-4-carboxamide]",0.014
2,"Cc1nn2c3c(nc2s1)CCN(C(=O)COc1ccc[n+]([O-])c1Cl)C3c1ccc(C2CC2)cc1F (stereo not drawn) [Example 1.6.19, 2-chloro-3-(2-(5-(4-cyclopropyl-2-fluorophenyl)-2-methyl-7,8-dihydro-[1,3,4]thiadiazolo[2′,3′:2,3]imidazo[4,5-c]pyridin-6(5H)-yl)-2-oxoethoxy)pyridine-1-oxide]",0.25
3,"COc1ccc(C2c3c(nc4sccn34)CCN2C(=O)COc2ccc(CN3CCOCC3)cc2Cl)cc1OC (stereo not drawn) [Example 6.1.2, 2-(2-chloro-4-(morpholinomethyl)phenoxy)-1-(5-(3,4-dimethoxyphenyl)-7,8-dihydrothiazolo[2′,3′:2,3]-imidazo[4,5-c]pyridin-6(5H)-yl)ethanone]",0.005
4,"Cc1nn2c3c(nc2s1)CCN(C(=O)COc1ccc(F)cc1Cl)C3c1ccc(C2CC2)cc1F (stereo not drawn) [Example 1.6.2, 2-(2-chloro-4-fluorophenoxy)-1-(5-(4-cyclopropyl-2-fluorophenyl)-2-methyl-7,8-dihydro-[1,3,4]thiadiazolo [2′,3′:2,3]imidazo[4,5-c]pyridin-6(5H)-yl)ethanone]",0.01
5,"Cc1cc(Cl)ccc1OCC(=O)N1CCc2nc3sccn3c2C1c1cnn(-c2ccccc2)c1 (stereo not drawn) [Example 6.13.7, 2-(4-chloro-2-methylphenoxy)-1-(5-(1-phenyl-1H-pyrazol-4-yl)-7,8-dihydrothiazolo[2′,3′:2,3]imidazo[4,5-c]pyridin-6(5H)-yl)ethanone]",0.026
6,"Cc1ncc(C2c3c(nc4sc(C)nn34)CCN2C(=O)COc2ccc(C(=O)N(C)C)nc2Cl)s1 (stereo not drawn) [Example 1.59.1, 6-chloro-N,N-dimethyl-5-(2-(2-methyl-5-(2-methylthiazol-5-yl)-7,8-dihydro-[1,3,4]thiadiazolo[2′,3′:2,3]imidazo[4,5-c]pyridin-6(5H)-yl)-2-oxoethoxy)picolinamide]",0.037
7,"Cc1cnc(C2c3c(nc4sc(C)nn34)CCN2C(=O)COc2ccc(C(=O)N(C)C3CC3)nc2Cl)c(F)c1 (stereo not drawn) [Example 1.31.14, 6-chloro-N-cyclopropyl-5-(2-(5-(3-fluoro-5-methylpyridin-2-yl)-2-methyl-7,8-dihydro-[1,3,4]thiadiazolo[2′,3′:2,3]imidazo[4,5-c]pyridin-6(5H)-yl)-2-oxoethoxy)-N-methylpicolinamide]",0.032
8,"Cc1nn2c3c(nc2s1)CCN(C(=O)COc1ccc(C(=O)N(C)C)nc1Cl)C3c1ncccc1F (stereo not drawn) [Example 1.35.2, 6-chloro-5-(2-(5-(3-fluoropyridin-2-yl)-2-methyl-7,8-dihydro-[1,3,4]thiadiazolo[2′,3′:2,3]imidazo[4,5-c]pyridin-6(5H)-yl)-2-oxoethoxy)-N,N-dimethylpicolinamide]",0.045
9,"Cc1nn2c3c(nc2s1)CCN(C(=O)COc1ccc(F)cc1C)C3c1ccc(C2CC2)cc1F (stereo not drawn) [Example 1.6.10, 1-(5-(4-cyclopropyl-2-fluorophenyl)-2-methyl-7,8-dihydro-[1,3,4]thiadiazolo[2′,3′:2,3]imidazo[4,5-c]pyridin-6(5H)-yl)-2-(4-fluoro-2-methylphenoxy)ethanone]",0.006
10,"CNC(=O)c1ccc(OCC(=O)N2CCc3nc4sc(C)nn4c3C2c2sc(C(=O)N(C)C)cc2F)c(Cl)n1 (stereo not drawn) [Example 1.24.10, 6-chloro-5-(2-(5-(5-(dimethylcarbamoyl)-3-fluoro-thiophen-2-yl)-2-methyl-7,8-dihydro-[1,3,4]thiadiazolo[2′,3′:2,3]imidazo[4,5-c]pyridin-6(5H)-yl)-2-oxoethoxy)-N-methylpicolinamide]",0.02
11,"CCN(CC)C(=O)c1ccc(OCC(=O)N2CCc3nc4sc(C)nn4c3[C@@H]2c2sccc2F)c(Cl)n1 [Example 1.23.14, (R)-6-chloro-N,N-diethyl-5-(2-(5-(3-fluorothiophen-2-yl)-2-methyl-7,8-dihydro-[1,3,4]thiadiazolo[2′,3′:2,3]imidazo[4,5-c]pyridin-6(5H)-yl)-2-oxoethoxy)picolinamide]",0.019
12,"Cc1nn2c3c(nc2s1)CCN(C(=O)COc1ccc(N2CC(F)(F)C2)nc1Cl)C3c1sccc1F (stereo not drawn) [Example 1.23.8, 2-((2-chloro-6-(3,3-difluoroazetidin-1-yl)pyridin-3-yl)oxy)-1-(5-(3-fluorothiophen-2-yl)-2-methyl-7,8-dihydro-[1,3,4]thiadiazolo[2′,3′:2,3]imidazo[4,5-c]pyridin-6(5H)-yl)ethanone]",0.006
13,"Cc1nn2c3c(nc2s1)CCN(C(=O)COc1ccc(NS(C)(=O)=O)nc1Cl)C3c1ccc(C2CC2)cc1F (stereo not drawn) [Example 1.6.26, N-(6-chloro-5-(2-(5-(4-cyclopropyl-2-fluorophenyl)-2-methyl-7,8-dihydro-[1,3,4]thiadiazolo[2′,3′:2,3]imidazo[4,5-c]pyridin-6(5H)-yl)-2-oxoethoxy)pyridin-2-yl)methanesulfonamide]",0.012

# From patent US9765092B2, “Tricyclic piperidine compounds” (ACTELION PHARMACEUTICALS LTD, priority 2013, dated 2017)
